Where a name gives a salt, the structure may show the parent alone.
What was measured:
[1] = system: RBE4 cells; experiment: [3H]-GHB uptake in RBE4 cells; format: cell-based, rat; details: for GHB uptake compared with GHB alone / GHB uptake in the presence of staurosporine: 10 mM GHB; for GHB uptake in the presence of staurosporine: 2 h pre-incubation with ketamine 40 µM or PMA 100 nM plus staurosporine
Description: The immortalized rat brain capillary endothelial cell line (RBE4) was kindly provided by Professor P. Couraud (Institut Cochin, Paris, France). RBE4 cells (passages 39–44) were used in all studies, as described previously. Briefly, cells were grown at 37 °C with 5% CO2 on Type-I collagen-coated flasks, and media was changed every 2–3 days. The culture medium was 1:1 α-minimum essentials medium/Hams F10 nutrient mixture supplemented with L-glutamine (2.0 mM), geneticin (300 μg/mL), human recombinant fibroblast growth factor (1 ng/mL), gentamicin (50 μg/mL), and 10% v/v fetal bovine serum (FBS). Cells were passaged using 0.25% trypsin/EDTA and seeded on individual 35 × 10 mm collagen-coated wells for uptake studies which were performed 7 days post-confluence (the time needed for formation of tight junctions).
In addition, the effect of various pre-incubation times with ketamine (0.5, 2, 4, 8 and 24 h) was also studied in these cells. […] After cell lysis, NaOH was neutralized with 0.5 mL 1.0 N HCl.

[2] = system: Sprague-Dawley rats; experiment: GHB-induced respiratory depression, whole-body plethysmography; details: for Respiratory depression (in words): ketamine alone, or naloxone 2 mg/kg i.v. with or without SCH50911 10 mg/kg given 5 min after GHB-ketamine; for Breathing frequency (in words) / Minute volume (in words) / Tidal volume (in words): GHB 600 mg/kg i.v. alone or with ketamine 6 mg/kg + 1 mg/kg/min, treatments 5 min after GHB-ketamine, compared to GHB-ketamine
[3] = GHB toxicokinetics (plasma and urine, noncompartmental analysis); details: for Ketamine plasma concentration in the study: ketamine 6 mg/kg i.v. bolus + 1 mg/kg/min infusion, maintained up to 1 h
[4] = cited from earlier work
[5] = system: Sprague-Dawley rats; experiment: Sedative effect (sleep time, righting reflex); details: GHB 400 mg/kg i.v. + ketamine 6 or 20 mg/kg i.v.; compared to GHB or ketamine alone
[6] = system: Sprague-Dawley rats; experiment: Fatality after GHB with or without ketamine; details: GHB 400 mg/kg i.v. bolus + 208 mg/kg/h infusion and/or ketamine 6 mg/kg bolus + 1 mg/kg/min infusion; n = 8
[7] = GHB blood-brain partitioning at steady state; details: GHB 400 mg/kg i.v. bolus + 208 mg/kg/h infusion alone; steady state 4 h
[8] = parameters: method as in PMID 12667908; details: GHB 400 mg/kg i.v. alone; cited from earlier work
[9] = GHB 600 mg/kg i.v. bolus, ketamine 6 mg/kg i.v. bolus + 1 mg/kg/min infusion, L-lactate 66 mg/kg + 302.5 mg/kg/h, AR-C155858 1 mg/kg, SCH50911 10 mg/kg or naloxone 2 mg/kg i.v. 5 min after GHB-ketamine

For CNC1(c2ccccc2Cl)CCCCC1=O (racemic) [ketamine, (±) Ketamine Hydrochloride], the “GHB uptake compared with GHB alone” value ([1]; 15 s, 2 h pre-incubation with ketamine 5, 15 or 40 µM at 37 °C) was “significantly increased”, the “GHB uptake compared with GHB alone” value ([1]; 15 s, ketamine 5, 15, 40 µM without pre-incubation) was “no significant change in GHB uptake” and the “GHB uptake compared with GHB alone” value ([1]; 0.5, 2 and 4 h pre-incubation with 40 µM ketamine) was “significant increases in GHB uptake”. For the same compound, the “GHB uptake in the presence of staurosporine” value [1] was “no increase in GHB uptake”, the “GHB uptake compared with GHB alone” value ([1]; longer pre-incubation times (8 and 24 h) with 40 µM ketamine) was “no significant changes” and the “Respiratory depression (in words)” value [2] was “did not result in any significant respiratory depression”. The “Steady-state concentration of ketamine with GHB compared to ketamine alone” value ([3]; GHB 600 mg/kg i.v., ketamine 6 mg/kg bolus + 1 mg/kg/min for 60 min) was “no significant difference”, the “Ketamine plasma concentration in the study” value [3] was ~ 7 µg/mL and the “Ketamine plasma concentration in the study” value ([3]; listed as Ketamine) was 7 µg/mL. The “Ketamine plasma concentrations associated with fatalities” value [4] was 1.8 to 27.4 µg/mL, the “Effect of co-administration on GHB sleep time” value [5] was “significant increase in sleep time” and the Fatality [6] was “No death was observed”.

With Cc1n[nH]c(C)c1Cc1sc2c(c1C(=O)N1C[C@H](O)CO1)c(=O)n(C)c(=O)n2CC(C)C [AR-C155858, 6-[(3,5-Dimethyl-1H-pyrazol-4-yl)methyl]-5-[[(4S)-4-hydroxy-2-isoxazolidinyl]carbonyl]-3-methyl-1-(2-methylpropyl)thieno [2,3-d]pyrimidine-2,4(1H,3H)-dione] the “Breathing frequency (in words)” value [2] was “significant and rapid improvement in breathing frequency” and the “Minute volume (in words)” value [2] was “completely reversed the decline in minute volume”.

For O=C(O)CCCO [GHB, γ-hydroxybutyric acid], the “Breathing frequency (in words)” value [2] was “decrease in breathing frequency”, the “Minute volume (in words)” value [2] was “remaining unchanged” and the “Tidal volume (in words)” value [2] was “compensatory increase in tidal volume”. For the same compound, the “Frequency AUEC” value [2, 9] was 5540 ± 1000 breaths, the “Frequency Emax” value [2, 9] was 31 ± 5 breaths/min and the “Frequency Td” value [2, 9] was 153 ± 12.5 min. The “Cbrain GHB” value [7] was 0.21 ± 0.03 mg/g, the “Cbrain (brain GHB concentration at RRR)” value [8] was 71.7 ± 9.89 µg/g and the “Cplasma (plasma GHB concentration at RRR)” value [8] was 379 ± 86.2 µg/mL. For the same compound, the Fatality [6] was “No death was observed”.

With C[C@H](O)C(=O)[O-].[Na+] [L-lactate, sodium L-lactate] the “Breathing frequency (in words)” value [2] was “significant improvement in breathing frequency and minute volume”, the “Minute volume (in words)” value [2] was “significant improvement in breathing frequency and minute volume” and the “Tidal volume (in words)” value [2] was “no change in tidal volume”.

For C=CCN1CC[C@]23c4c5ccc(O)c4O[C@H]2C(=O)CC[C@@]3(O)[C@H]1C5 [Naloxone, naloxone hydrochloride dihydrate], the “Respiratory depression (in words)” value [2] was “no effects”.

With CCCCCCCCCCCCCC(=O)O[C@@H]1[C@@H](C)[C@@]2(O)[C@@H](C=C(CO)C[C@]3(O)C(=O)C(C)=C[C@@H]23)[C@@H]2C(C)(C)[C@]12OC(C)=O [PMA, phorbol 12-myristate 13-acetate] the “GHB uptake compared with GHB alone” value ([1]; 2 h pre-incubation with PMA 100 nM) was “significant increase in GHB uptake” and the “GHB uptake in the presence of staurosporine” value [1] was “no increase in GHB uptake”.

In the case of CC1(C)CO[C@@H](CC(=O)O)CN1 [SCH50911, (2S)-(+)-5,5-Dimethyl-2-morpholineacetic acid], the “Breathing frequency (in words)” value [2] is reported as “significant improvement in breathing frequency and minute volume”, the “Minute volume (in words)” value [2] is reported as “significant improvement in breathing frequency and minute volume” and the “Tidal volume (in words)” value [2] is reported as “compensatory increase in tidal volume was also absent”.

For CN[C@@H]1C[C@H]2O[C@@](C)([C@@H]1OC)n1c3ccccc3c3c4c(c5c6ccccc6n2c5c31)C(=O)NC4 [staurosporine], the “Effect on the increase in GHB uptake by PMA and ketamine” value ([1]; RBE4 cells, co-incubation during 2 h pre-incubation) was “significantly inhibited”.
